Test [1] relates to MCF-7, MDA-MB-231, and MDA-MB-436 cells. The test can be described thus: Trypan blue exclusion assay. In kind it is cell-based, human. Conditions: dose- and time-dependent. How it is done: (§1) Cells were seeded into 96-well plate and pre-cultured for 24 h, then treated with Eth for 24. Cell cytotoxicity was determined by MTT assay. The absorbance was measured at 490 nm by automated microplated reader (BioTek Instruments, Inc., Winooski, VT, USA), and the cell death rate was calculated as followed: inhibition rate (%) = (average A490 of the control group − average A490 of the experimental group)/(average A490 of the control group − average A490 of the blank group) × 100%. Cell viability was estimated by trypan blue dye exclusion.

For test [2], the system named is MDA-MB-231. Kind of test: MTT cytotoxicity assay. In kind it is cell-based. The note with it: Homo sapiens, MDA-MB-231, 24 h.
Source text: (§2) Human BC cell lines MCF-7, MDA-MB-231, DMA-MB-436, SK-BR3, MDA-MB-468, MDA-MB-453, and MDA-MB-435S and non-tumorigenic MCF-10A human mammary epithelial cells were obtained from American Type Culture Collection (ATCC; Manassas, VA, USA). MCF-7, SK-BR3, MDA-MB-231, and MDA-MB-436 cells were maintained in Dulbecco’s modified Eagle’s medium (DMEM; high glucose; Gibco; Thermo Fisher Scientific, Inc., Waltham, MA, USA) supplemented with 10% fetal bovine serum (FBS; HyClone; Logan, UT, USA) and antibiotics and incubated in a humidified atmosphere with 5% CO2 at 37°C. MDA-MB-468, MDA-MB-453, and MDA-MB-435S cells were maintained in Leibovitz’s L-15 (Gibco) supplemented with 10% FBS and antibiotics and incubated in a humidified atmosphere without CO2 at 37°C. MCF-10A cells were maintained in DMEM/F12 medium containing 5% horse serum (HS), insulin ([…]), epidermal growth factor (EGF, 20 ng/mL), choleratoxin ([…]), hydrocortisone ([…]), penicillin (50 U/mL), and streptomycin (50 U/mL), and incubated in a humidified atmosphere with CO2 at 37°C.
as §1
(In general: Tetrazolium assays rely on reduction of a dye to a coloured formazan, in cell work by metabolically active cells.)

Test [3] concerns MCF-7. Kind of test: MTT cytotoxicity assay. In kind it is cell-based. The note with it: Homo sapiens, MCF7, MCF-7, 24 h.
Source text: as §2, §1

Test [4] deals with SK-BR3. Kind of test: MTT cytotoxicity assay. In kind it is cell-based. Conditions: Homo sapiens, SK-BR-3, SK-BR3, 24 h, means ± SD of quadruplicate determinations.
Source text: as §2, §1

The test system of test [5] is MDA-MB-468. The test can be described thus: MTT cytotoxicity assay. In kind it is cell-based. Conditions: Homo sapiens, MDA-MB-468, 24 h, means ± SD of quadruplicate determinations.
Source text: as §2, §1

In test [6] the test system is MDA-MB-436. Kind of test: MTT cytotoxicity assay. In kind it is cell-based. The note with it: Homo sapiens, MDA-MB-436, 24 h.
Source text: as §2, §1

Test [7] concerns MDA-MB-453. Kind of test: MTT cytotoxicity assay. In kind it is cell-based. The note with it: Homo sapiens, MDA-MB-453, 24 h, means ± SD of quadruplicate determinations.
Source text: as §2, §1

Test [8] has as its system MDA-MB-435S. The test can be described thus: MTT cytotoxicity assay. In kind it is cell-based. Conditions: Homo sapiens, 24 h, means ± SD of quadruplicate determinations.
Source text: as §2, §1

The subject of test [9] is MCF-10A. Kind of test: MTT cytotoxicity assay. In kind it is cell-based, human.
Source text: as §2
Cells were seeded into 96-well plate and pre-cultured for 24 h, then treated with Eth for 24. Cell cytotoxicity was determined by MTT assay. […]

Test [10] concerns AMPK. Kind of test: AMPK activity assay (CycLex kit) in treated cells. The note with it: MCF-7, MDA-MB-231, and MDA-MB-436 cells treated with Eth. In kind it is cell-based, human. How it is done: AMPK kinase activity was assay was performed by AMPK kinase activity kit which was purchased from CycLex Co., Ltd. (Cat#CY-1182). Absorbance was measured at 450 nm.
Next we determined whether Eth modulates the activity of the AMPK kinase. For this purpose, MCF-7, MDA-MB-231, and MDA-MB-436 cells were treated with Eth and incubated for different time periods (1, 6, 12, and 24 h).
Figure 4 Eth is a direct activator of AMPK. (A): MCF-7, MDA-MB-231, or MDA-MB-436 cells were treated with increasing concentrations of Eth for 24 h, and AMPK activity assay was performed. (B): The binding mode of Eth docked into AMPK. (C): The binding mode of Eth docked into AMPK. α subunit is green, β subunit is cyan, γ subunit is magenta and Eth is gold. (D): Details of the binding site of Eth in the ADaM site of AMPK. The main residues involved in drug interactions are shown as labeled green sticks. α subunit is green, β subunit is cyan. The pSER-108 was shown in stick and colored by gold. (E) The interaction pattern of Eth with the residues. (F): The 2D representation of the AMPK crystal structure in complex with Eth. (G): Chemical structure of Eth intermediate and Biotin-labeled Eth. (H): Viability of MCF-7, MDA-MB-231 or MDA-MB-436 cells exposed to Biotin-Eth as determined by MTT assay. […]

Each structure is given as a SMILES string.

The term IC50 denotes the concentration that inhibits the measured activity by half. The low end stands for inhibition by little substance, the high end for a need for much substance. For `CCOC1c2c(ccc3c2OCO3)-c2ccc3cc4c(cc3c2N1C)OCO4` (centres unmarked) [Eth, Ethoxysanguinarine], the viable cells entry in test [1] was “rapidly reduced viable”. Moreover, the half-inhibitory concentration (IC50) in test [2] came to 3.75 ± 0.94 µM; in test [3], 3.29 ± 1.5 µM; in test [4], 2.79 ± 0.39 µM; in test [5], 6.67 ± 1.7 µM; in test [6], 2.63 ± 0.65 µM; in test [7], 7.06 ± 0.59 µM. The IC50 came to 4.58 ± 0.77 µM in test [8] and 12.3 ± 2.05 µM in test [9] (Homo sapiens, MCF-10A, 24 h, MTT assay, means ± SD of quadruplicate determinations). Also, the “sensitivity to Eth compared with the BC cell lines” value in test [9] (normal human mammary epithelial cell line MCF-10A) is reported as “less sensitive”. Besides, the AMPK activity entry in test [10] is “robust increase in AMPK activity”.

The record behind these values is paper PMC6960228, “Ethoxysanguinarine, a Novel Direct Activator of AMP-Activated Protein Kinase, Induces Autophagy and Exhibits Therapeutic Potential in Breast Cancer Cells” (Frontiers in Pharmacology, 2020).
